Test results as given in PubChem BioAssay AID330 (DTP/NCI, 2004).
Several values for one entry are separate records, joined by “and”; a condition that tells them apart may be missing. Equal values may be shown once. Inconclusive results and toxic doses are left out.

System: P388 leukemia ip, CD2F1 mice, survival T/C
Assay: NCI In Vivo Anticancer Drug Screen. Data for tumor model P388 Leukemia (intraperitoneal) in CD2F1 (CDF1) mice
Details: endpoint: median survival time, higher = longer survival
How it was run: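 Mice carrying the transplanted tumor received test compound or vehicle. Survival was recorded in each group, and the value is the treated-group measurement divided by that of the vehicle-treated control group.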

[1] = dose: 50.0 mg/kg/injection, schedule: Q01DX009 (ip), vehicle: saline

COc1cccc2c1C(=O)c1c(O)c3c(c(O)c1C2=O)C[C@@](O)(/C(C)=N/NC(=O)c1ccccc1)C[C@@H]3OC1CC(N)C(O)C(C)O1 (stereo not given in full)
T/C (dose: 0.12 mg/kg/injection, schedule: Q01DX009 (ip), vehicle: water): 99 % of control and 104 % of control and 89 % of control
T/C (dose: 0.5 mg/kg/injection, schedule: Q01DX005 (ip), vehicle: suspension in saline): 120 % of control
T/C (dose: 0.5 mg/kg/injection, schedule: Q01DX005 (iv), vehicle: suspension in saline): 109 % of control
T/C (dose: 0.65 mg/kg/injection, schedule: Q01DX009 (ip), vehicle: saline): 168 % of control
T/C (dose: 1.0 mg/kg/injection, schedule: Q01DX005 (iv), vehicle: suspension in saline): 110 % of control
T/C (dose: 1.0 mg/kg/injection, schedule: Q01DX009 (ip), vehicle: other): 150 % of control
T/C (dose: 1.08 mg/kg/injection, schedule: Q01DX009 (ip), vehicle: saline): 172 % of control
T/C (dose: 1.56 mg/kg/injection, schedule: Q04DX003 (ip), vehicle: saline): 177 % of control
T/C (dose: 1.8 mg/kg/injection, schedule: Q01DX009 (ip), vehicle: saline): 190 % of control
T/C (dose: 2.0 mg/kg/injection, schedule: Q01DX005 (iv), vehicle: suspension in saline): 108 % of control
T/C (dose: 2.0 mg/kg/injection, schedule: Q01DX009 (ip), vehicle: other): 166 % of control
T/C (dose: 2.0 mg/kg/injection, schedule: Q04DX003 (ip), vehicle: water): 160 % of control
T/C (dose: 3.0 mg/kg/injection, schedule: Q01DX009 (ip), vehicle: saline): 213 % of control
T/C (dose: 3.0 mg/kg/injection, schedule: Q04DX003 (ip), vehicle: saline): 150 % of control
T/C (dose: 3.0 mg/kg/injection, schedule: Q04DX003 (ip), vehicle: water): 115 % of control
T/C (dose: 3.13 mg/kg/injection, schedule: Q04DX003 (ip), vehicle: saline): 176 % of control
T/C (dose: 3.2 mg/kg/injection, schedule: Q01DX001 (ip), vehicle: water): 153 % of control
T/C (dose: 3.24 mg/kg/injection, schedule: Q04DX003 (ip), vehicle: water): 153 % of control
T/C (dose: 4.0 mg/kg/injection, schedule: Q01DX005 (ip), vehicle: saline): 181 % of control
T/C (dose: 4.0 mg/kg/injection, schedule: Q01DX005 (iv), vehicle: saline): 104 % of control
T/C (dose: 4.0 mg/kg/injection, schedule: Q01DX009 (ip), vehicle: other): 175 % of control
T/C (dose: 4.2 mg/kg/injection, schedule: Q01DX001 (ip), vehicle: water): 158 % of control
T/C (dose: 5.0 mg/kg/injection, schedule: Q01DX001 (ip), vehicle: saline): 168 % of control
T/C (dose: 5.0 mg/kg/injection, schedule: Q04DX003 (ip), vehicle: saline): 163 % of control
T/C (dose: 5.3 mg/kg/injection, schedule: Q01DX009 (ip), vehicle: saline): 157 % of control
T/C (dose: 5.4 mg/kg/injection, schedule: Q04DX003 (ip), vehicle: water): 171 % of control
T/C (dose: 5.6 mg/kg/injection, schedule: Q01DX001 (ip), vehicle: water): 165 % of control
T/C (dose: 6.25 mg/kg/injection, schedule: Q04DX003 (ip), vehicle: saline): 205 % of control
T/C (dose: 7.5 mg/kg/injection, schedule: Q01DX001 (ip), vehicle: water): 177 % of control
T/C (dose: 8.0 mg/kg/injection, schedule: Q01DX001 (ip), vehicle: saline): 163 % of control
T/C (dose: 8.0 mg/kg/injection, schedule: Q01DX005 (ip), vehicle: saline): 229 % of control
T/C (dose: 8.0 mg/kg/injection, schedule: Q01DX005 (ip), vehicle: suspension in saline): 174 % of control
T/C (dose: 8.0 mg/kg/injection, schedule: Q01DX005 (iv), vehicle: suspension in saline): 151 % of control
T/C (dose: 8.0 mg/kg/injection, schedule: Q01DX009 (ip), vehicle: other): 189 % of control
T/C (dose: 8.0 mg/kg/injection, schedule: Q01DX009 (ip), vehicle: saline): 90 % of control
T/C (dose: 8.0 mg/kg/injection, schedule: Q04DX003 (ip), vehicle: saline): 163 % of control
T/C (dose: 8.0 mg/kg/injection, schedule: Q04DX003 (ip), vehicle: water): 116 % of control and 190 % of control and 215 % of control
T/C (dose: 8.3 mg/kg/injection, schedule: Q01DX009 (ip), vehicle: saline): 90 % of control
T/C (dose: 9.0 mg/kg/injection, schedule: Q04DX003 (ip), vehicle: water): 175 % of control
T/C (dose: 10.0 mg/kg/injection, schedule: Q01DX001 (ip), vehicle: clinical formulation): 160 % of control
T/C (dose: 10.0 mg/kg/injection, schedule: Q01DX001 (ip), vehicle: water): 181 % of control
T/C (dose: 12.0 mg/kg/injection, schedule: Q01DX001 (ip), vehicle: clinical formulation): 164 % of control
T/C (dose: 12.5 mg/kg/injection, schedule: Q04DX003 (ip), vehicle: saline): 187 % of control
T/C (dose: 13.3 mg/kg/injection, schedule: Q01DX001 (ip), vehicle: saline): 113 % of control
T/C (dose: 13.3 mg/kg/injection, schedule: Q04DX003 (ip), vehicle: saline): 109 % of control
T/C (dose: 14.0 mg/kg/injection, schedule: Q01DX001 (ip), vehicle: clinical formulation): 167 % of control
T/C (dose: 16.0 mg/kg/injection, schedule: Q01DX001 (ip), vehicle: clinical formulation): 188 % of control
T/C (dose: 16.0 mg/kg/injection, schedule: Q01DX005 (iv), vehicle: saline): 211 % of control
T/C (dose: 16.0 mg/kg/injection, schedule: Q04DX003 (ip), vehicle: water): 180 % of control and 318 % of control
T/C (dose: 18.0 mg/kg/injection, schedule: Q01DX001 (ip), vehicle: clinical formulation): 179 % of control
T/C (dose: 22.2 mg/kg/injection, schedule: Q01DX001 (ip), vehicle: saline): 95 % of control
T/C (dose: 24.0 mg/kg/injection, schedule: Q04DX003 (ip), vehicle: water): 171 % of control
T/C (dose: 32.0 mg/kg/injection, schedule: Q04DX003 (ip), vehicle: water): 163 % of control and 233 % of control
T/C (dose: 48.0 mg/kg/injection, schedule: Q04DX003 (ip), vehicle: water): 117 % of control
T/C (dose: 64.0 mg/kg/injection, schedule: Q04DX003 (ip), vehicle: water): 109 % of control and 114 % of control
T/C (dose: 96.0 mg/kg/injection, schedule: Q04DX003 (ip), vehicle: water): 89 % of control

O=CNc1c(Br)cc2c(c1Br)Cc1cc([N+](=O)[O-])ccc1-2
T/C (dose: 6.25 mg/kg/injection, schedule: Q01DX009 (ip), vehicle: saline): 97 % of control
T/C (dose: 12.5 mg/kg/injection, schedule: Q01DX009 (ip), vehicle: saline): 90 % of control
T/C (dose: 25.0 mg/kg/injection, schedule: Q01DX009 (ip), vehicle: saline): 92 % of control
T/C [1]: 89 % of control

COc1cc(C)c(C(=O)Oc2cc(C)c(C(=O)O)c(O)c2)c(O)c1
T/C [1]: 90 % of control
T/C (dose: 100.0 mg/kg/injection, schedule: Q01DX009 (ip), vehicle: saline): 95 % of control

COc1ccc(C2OC3=C(Nc4ccc([N+](=O)[O-])cc4N3)C2=O)c(OC)c1 (stereo not given)
T/C (dose: 50.0 mg/kg/injection, schedule: Q01DX005 (ip), vehicle: Klucel (hydroxypropylcellulose) (HPC)): 93 % of control
T/C (dose: 100.0 mg/kg/injection, schedule: Q01DX005 (ip), vehicle: Klucel (hydroxypropylcellulose) (HPC)): 101 % of control
T/C (dose: 200.0 mg/kg/injection, schedule: Q01DX005 (ip), vehicle: Klucel (hydroxypropylcellulose) (HPC)): 101 % of control

CS/C(C#N)=C(\C#N)SC
T/C (dose: 50.0 mg/kg/injection, schedule: Q01DX005 (ip), vehicle: saline with Tween-80): 115 % of control
T/C (dose: 100.0 mg/kg/injection, schedule: Q01DX005 (ip), vehicle: saline with Tween-80): 113 % of control

O=C(O)C(=O)O.O=C(O)C(=O)O.O=C(O)C(=O)O.[Co]
T/C (dose: 6.25 mg/kg/injection, schedule: Q04DX002 (ip), vehicle: saline): 91 % of control
T/C (dose: 12.5 mg/kg/injection, schedule: Q04DX002 (ip), vehicle: saline): 100 % of control
T/C (dose: 25.0 mg/kg/injection, schedule: Q04DX002 (ip), vehicle: saline): 91 % of control

CC(=O)/C(=C\c1ccco1)C(=O)CCN(C)C
T/C (dose: 60.0 mg/kg/injection, schedule: Q01DX005 (ip), vehicle: saline): 108 % of control and 109 % of control and 115 % of control
T/C (dose: 120.0 mg/kg/injection, schedule: Q01DX005 (ip), vehicle: saline): 106 % of control and 118 % of control and 120 % of control
T/C (dose: 240.0 mg/kg/injection, schedule: Q01DX005 (ip), vehicle: saline): 108 % of control and 115 % of control
T/C (dose: 480.0 mg/kg/injection, schedule: Q01DX005 (ip), vehicle: saline): 101 % of control

CCC1(O)CC(OC2CC(N(C)C)C(OC3CC(O)C(OC4CCC(=O)C(C)O4)C(C)O3)C(C)O2)c2c(cc3c(c2O)C(=O)c2c(O)ccc(O)c2C3=O)C1C(=O)OC (stereo not given)
T/C (dose: 0.78 mg/kg/injection, schedule: Q01DX009 (ip), vehicle: saline with Tween-80): 178 % of control
T/C (dose: 1:4.0 dilution, schedule: Q01DX009 (ip), vehicle: saline): 241 % of control
T/C (dose: 1:8.0 dilution, schedule: Q01DX009 (ip), vehicle: saline): 190 % of control

NNC(=S)NCCN1CCOCC1
T/C (dose: 50.0 mg/kg/injection, schedule: Q01DX005 (ip), vehicle: saline): 105 % of control
T/C (dose: 100.0 mg/kg/injection, schedule: Q01DX005 (ip), vehicle: saline): 105 % of control
T/C (dose: 200.0 mg/kg/injection, schedule: Q01DX005 (ip), vehicle: saline): 100 % of control
